The target in one test is T1, Vanilloid receptor (Rattus norvegicus, UniProt Q9ERZ8+Q9WUD2+O35433). The test is described as follows: Antagonistic activity against vanilloid receptor as concentration to reduce the response to […] by 50% from neonatal rat culture spinal sensory neurons using [Ca2+] -influx assay. In kind it is functional.
For orientation: IC50 means the concentration that inhibits the measured activity by half. A low value points to greater potency in that assay. Compound `CCN(CCCc1ccc(O)c(OC)c1)/C(S)=N/CCc1ccccc1` came in with an IC50 greater than 30 nM.
On the same count and under the same terms, under `COc1ccc(CCCN(/C(S)=N/CCc2ccccc2)C(C)C)cc1OC` stands 10.5 nM; under `CC(C)N(CCCc1ccc(O)c(O)c1)/C(S)=N/CCc1ccccc1`, 9.3 nM; under `COc1cc(CCCCN(CCc2ccccc2)/C(S)=N/CCc2ccccc2)ccc1O`, 6.1 nM.
On to `COc1cc(CCCN(CCc2ccccc2)/C(S)=N/CCc2ccc(F)cc2)ccc1O`, for which the IC50 turned out to be 5.1 nM.
Still for that read-out and setting: under `CC(C)N(CCCc1ccc(O)cc1)/C(S)=N/CCc1ccccc1` stands greater than 30 nM; under `COc1cc(CCCN(CCc2ccc([N+](=O)[O-])cc2)/C(S)=N/CCc2ccccc2)ccc1O`, 0.5 nM.
Same read-out and setting: the figure for `COc1ccc(CCN(CCCc2ccc(O)c(OC)c2)/C(S)=N/CCc2ccccc2)cc1` is 0.72 nM.
On the same count and under the same terms, under `CCCCN(CCCc1ccc(O)c(OC)c1)/C(S)=N/CCc1ccccc1` stands 10 nM; under `COc1cc(CCCN(CCc2ccc(C)cc2)/C(S)=N/CCc2ccccc2)ccc1O`, 0.95 nM; under `COc1cc(CCCN(CCc2ccccc2)/C(S)=N/CCc2ccccc2)ccc1O`, 0.32 nM.
`Oc1cc2c(cc1O)CN(C(=S)NCCc1ccc(Cl)cc1)CCC2` [CAPSAZEPINE] gave an IC50 of 650000 nM.
Still for that read-out and setting: the figure for `COc1cc(CCCN(CCc2ccc(F)cc2)/C(S)=N/CCc2ccccc2)ccc1O` is 1.2 nM.
On the same count and under the same terms, the figure for `CCCCCCCCN(CCCc1ccc(O)c(OC)c1)/C(S)=N/CCc1ccccc1` is greater than 30 nM.
In turn, `COc1cc(CCCN(/C(S)=N/CCc2ccccc2)C(c2ccccc2)c2ccccc2)ccc1O` displayed an IC50 of 0.46 nM. In other words, the sub-nanomolar range.
On the same count and under the same terms, the figure for `COc1cc(CCCN(CCCc2ccccc2)/C(S)=N/CCc2ccccc2)ccc1O` is 3.2 nM; for `COc1cc(CCCN(/C(S)=N/CCc2ccccc2)C2CCCCC2)ccc1O` it is 3 nM.
`COc1cc(CCCN(Cc2ccccc2)/C(S)=N/CCc2ccccc2)ccc1O` returned an IC50 of 0.95 nM.
In the case of `COc1cc(CCCN(CCc2ccc(Cl)cc2)/C(S)=N/CCc2ccccc2)ccc1O`, the IC50 was found to be 0.55 nM.
On the same count and under the same terms, the figure for `CCCN(CCCc1ccc(O)c(OC)c1)/C(S)=N/CCc1ccccc1` is 12 nM; for `COc1cc(CCCN(/C(S)=N/CCc2ccccc2)C(C)C)ccc1O` it is 2.5 nM; for `COc1cc(CCCN(CCc2ccccc2)/C(S)=N/CCc2ccc(Cl)cc2)ccc1O` it is 2.4 nM.

In the next test the target is T1, Vanilloid receptor. The test is described as follows: Agonistic activity towards vanilloid receptor, [Ca2+] influx in neonatal rat spinal sensory neuronal culture. Format: functional.
Broadly, the EC50 is the concentration needed to bring the measured effect to its halfway point. Read a high EC50 as a less potent agent. Turning to `COc1cc(CCC/N=C(\S)NCCc2ccccc2)ccc1O`, the EC50 is greater than 30000 nM.
Still for that read-out and setting: under `COc1cc(CCC2CCCN2/C(S)=N/CCc2ccccc2)ccc1O` (stereo not given) stands 3000 nM; under `COc1cc(CCCN(C)/C(S)=N/CCc2ccccc2)ccc1O`, greater than 30000 nM.

Values taken from ChEMBL document CHEMBL1136576, “Synthesis of N,N',N"-trisubstituted thiourea derivatives and their antagonist effect on the vanilloid receptor” (Bioorg Med Chem Lett, 2003).
